For test [1], the system named is IL2-induced peritoneal recruitment of lymphocytes. The test is described as follows: IL2-induced peritoneal recruitment of lymphocytes in mice. Type of test: in vivo. Particulars: C3H mice. How it is done: B. Biological Assay: IL2-Induced Peritoneal Recruitment of Lymphocytes in Mice Protocol
C3H Mice (Elevage Janvier) (8 week old, n=6) received IL2 (SPRI, 20 μg/kg, 40 ml/kg, ip) 15 min after administration of the test molecules. Twenty-four hours later, the animals were sacrificed and the lavage of the peritoneal cavity was conducted using 3×5 ml PBS-1 mM EDTA (+4° C.). After centrifugation (10 min at 3000 rpm), the pellet was resuspended in 1 ml PBS. The peritoneal cells were counted using a Beckman/Coulter counter. IL2 was solubilized in saline. The test compounds of the invention were solubilized or suspended in 0.5% carboxymethylcellulose (CMC)/0.25% Tween-20 and orally administered. […]

The target in a further test is T1, collagenase (MMP1) (Homo sapiens, UniProt P03956).
T1 sequence (P03956 100-469): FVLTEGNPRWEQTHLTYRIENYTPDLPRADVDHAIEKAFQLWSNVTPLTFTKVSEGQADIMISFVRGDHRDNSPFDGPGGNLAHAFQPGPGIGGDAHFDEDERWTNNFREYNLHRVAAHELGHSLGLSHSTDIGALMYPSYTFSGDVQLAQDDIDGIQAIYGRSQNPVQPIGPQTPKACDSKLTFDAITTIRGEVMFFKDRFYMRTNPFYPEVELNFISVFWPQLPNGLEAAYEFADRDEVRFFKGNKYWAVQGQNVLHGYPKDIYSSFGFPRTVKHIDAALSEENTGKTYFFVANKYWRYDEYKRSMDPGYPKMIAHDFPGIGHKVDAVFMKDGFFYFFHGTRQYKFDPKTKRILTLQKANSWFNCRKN
The experiment in a line: MMP1 enzyme inhibition assay, coumarin-labelled peptide substrate. Type of test: biochemical. Particulars: read-out: MMP-1 (nM) inhibitory activity. The method, then: (§1) Stock solutions were made up as follows: • Assay Buffer: 100 mM Tris-HCl pH 7.6 containing 100 mM NaCl, 10 mM CaCl2, and 0.05% Brij 35 • Substrate: 0.4 mM McaPLGLDpaAR (from Bachem) (0.437 mg/ml) stock solution in 100% • DMSO (stored at −20° C.). Dilute to 8 μM in assay buffer. • Enzyme: Recombinant human 92 kDa gelatinase (MMP-9; APMA (4-aminophenylmercuric acetate)-activated if necessary) appropriately diluted in assay buffer.
(§2) Test Compounds were prepared initially as 10 mM compound solution in 100% DMSO, diluted to 1 mM in 100% DMSO, then serially diluted 3-fold in 100% DMSO across columns 1-10 of a 96-well microtitre plate Assay concentration range, 100 μM (column 1) to 5.1 nM (column 10)
(§3) The assay was performed in a total volume of 100 μl upper well in 96-well microtitre plates. Activated enzyme (20 μl) was added to the wells followed by 20 μl of assay buffer. Appropriate concentrations of test compounds dissolved in 10 μl of DMSO were then added followed by 50 μl of McaPLGLDpaAR (8 μM, prepared by dilution of DMSO stock in assay buffer). For each assay ten concentrations of test compound were examined in duplicate. Control wells lack either enzyme or test compound. The reactions were incubated at 37° C. for 2 hours. The fluorescence at 405 nm was measured immediately with an SLT Fluostar fluorometer (SLT Labinstruments GmbH, Grödig, Austria) using 320 nm excitation, without stopping the reaction.
(§4) The effect of the test compound was determined from the dose response curve generated by the 10 duplicate concentrations of inhibitor. The IC50 (the concentration of compound required to give a 50% decrease in enzyme activity) was obtained by fitting data to the equation, Y=a+((b−a)/(1+(c/X)^d)). (Y=inhibition achieved for a particular dose; X=the dose in nM; a=minimum y or zero % inhibition; b=maximum y or 100% inhibition; c=is the IC50; d=is the slope). The result was rounded to one significant figure.
Compounds of the invention were tested for inhibitory activity against collagenase (MMP1) in an assay using a coumarin-labelled peptide substrate, (7-methoxycoumarin-4-yl)acetyl-Pro-Leu-Gly-Leu-(3-[2,4-dinitrophenyl]-L-2,3-diaminopropionyl)-Ala-Arg-NH2 (McaPLGLDpaAR) (Knight et al, FEBS Lett. 1992; 263-266). The protocol for this assay was as described for the MMP9 assay above.

Another test addresses metalloelastase (MMP12) (Homo sapiens, UniProt P39900). The experiment in a line: MMP12 enzyme inhibition assay, coumarin-labelled peptide substrate. Type of test: biochemical. Particulars: read-out: MMP-12 (nM) inhibitory activity. The method, then:
as §1, §2, §3, §4
Compounds of the invention were tested for inhibitory activity against metalloelastase (MMP12) in an assay using a coumarin-labelled peptide substrate, (7-methoxycoumarin-4-yl)acetyl-Pro-Leu-Gly-Leu-(3-[2,4-dinitrophenyl]-L-2,3-diaminopropionyl)-Ala-Arg-NH2 (McaPLGLDpaAR) (Knight et al, FEBS Lett. 1992; 263-266). The protocol for this assay was as described for the MMP9 assay above.

In the next test the target is 92 kDa gelatinase (MMP9) (Homo sapiens, UniProt P14780). The experiment in a line: MMP9 enzyme inhibition assay, coumarin-labelled peptide substrate. The following applies: recombinant human MMP-9, 37° C., 2 hours; read-out: MMP-9 (nM) inhibitory activity. Type of test: biochemical. How it is done: Compounds of the invention were tested for inhibitory activity against 92 kDa gelatinase (MMP9) in an assay using a coumarin-labelled peptide substrate, (7-methoxycoumarin-4-yl)acetyl-Pro-Leu-Gly-Leu-(3-[2,4-dinitrophenyl]-L-2,3-diaminopropionyl)-Ala-Arg-NH2 (McaPLGLDpaAR) (Knight et al, FEBS Lett. 1992; 263-266).
Chain of 92 kDa gelatinase (MMP9) (P14780 107-707 limits assumed): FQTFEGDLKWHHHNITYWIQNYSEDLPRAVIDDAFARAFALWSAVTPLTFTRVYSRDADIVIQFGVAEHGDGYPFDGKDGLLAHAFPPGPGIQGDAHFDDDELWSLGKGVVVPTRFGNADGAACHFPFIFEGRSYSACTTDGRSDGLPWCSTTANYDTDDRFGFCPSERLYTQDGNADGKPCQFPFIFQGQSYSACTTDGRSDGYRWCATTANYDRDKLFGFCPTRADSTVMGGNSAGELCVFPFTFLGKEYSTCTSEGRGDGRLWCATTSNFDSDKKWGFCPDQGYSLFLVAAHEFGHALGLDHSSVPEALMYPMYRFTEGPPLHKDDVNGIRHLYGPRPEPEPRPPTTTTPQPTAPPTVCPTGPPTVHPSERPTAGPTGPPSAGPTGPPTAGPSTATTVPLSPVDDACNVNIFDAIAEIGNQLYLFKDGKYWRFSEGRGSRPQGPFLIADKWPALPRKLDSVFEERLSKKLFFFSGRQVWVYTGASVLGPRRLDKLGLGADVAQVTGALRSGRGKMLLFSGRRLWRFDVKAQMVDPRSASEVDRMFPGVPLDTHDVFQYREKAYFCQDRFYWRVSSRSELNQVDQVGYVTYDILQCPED
as §1, §2, §3, §4

The target in the next test is T2, MMP-2 (Homo sapiens, UniProt P08253).
T2 sequence (P08253 110-660): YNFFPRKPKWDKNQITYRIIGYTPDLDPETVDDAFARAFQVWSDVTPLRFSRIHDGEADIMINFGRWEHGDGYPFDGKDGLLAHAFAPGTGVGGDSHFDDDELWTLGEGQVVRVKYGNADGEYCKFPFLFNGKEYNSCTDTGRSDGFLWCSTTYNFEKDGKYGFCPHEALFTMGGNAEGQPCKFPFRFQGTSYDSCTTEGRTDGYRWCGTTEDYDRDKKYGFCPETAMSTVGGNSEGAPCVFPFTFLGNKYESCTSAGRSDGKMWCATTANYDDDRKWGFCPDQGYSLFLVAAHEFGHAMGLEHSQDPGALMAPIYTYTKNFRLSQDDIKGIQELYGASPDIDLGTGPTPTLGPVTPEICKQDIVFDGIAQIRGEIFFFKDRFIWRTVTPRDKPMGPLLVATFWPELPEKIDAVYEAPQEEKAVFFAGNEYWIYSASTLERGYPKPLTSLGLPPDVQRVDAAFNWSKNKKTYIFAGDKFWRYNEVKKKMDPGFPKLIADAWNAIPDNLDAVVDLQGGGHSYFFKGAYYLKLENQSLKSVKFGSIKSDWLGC
The test is described as follows: MMP-2 enzyme inhibition. Type of test: biochemical. Particulars: read-out: MMP-2 (nM) inhibitory activity. The source says: For instance the inhibitory activities of some of the compounds of the examples against MMP-12, MMP-9, MMP-2 and MMP-1 are set out in the following table: […]

[2] abbreviates: 3 mg/kg po, 15 min before IL2 ip, cells counted 24 h later.

A value given as a limit tells only on which side of the number the result lay.

Chain of metalloelastase (MMP12) (P39900 106-470): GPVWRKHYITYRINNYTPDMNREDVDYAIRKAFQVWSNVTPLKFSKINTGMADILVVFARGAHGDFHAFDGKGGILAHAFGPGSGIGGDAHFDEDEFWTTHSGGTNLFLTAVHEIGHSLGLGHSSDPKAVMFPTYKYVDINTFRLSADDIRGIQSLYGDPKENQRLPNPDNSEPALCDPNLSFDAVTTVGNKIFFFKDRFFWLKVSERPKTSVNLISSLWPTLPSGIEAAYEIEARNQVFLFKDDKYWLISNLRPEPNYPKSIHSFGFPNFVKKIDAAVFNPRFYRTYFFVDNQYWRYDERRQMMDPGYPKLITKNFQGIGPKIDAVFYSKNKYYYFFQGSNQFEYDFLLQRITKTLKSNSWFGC

As for `C[C@@H]1C[C@H]2[C@@H]3CCC4=CC(=O)C=C[C@]4(C)[C@@]3(F)[C@@H](O)C[C@]2(C)[C@@]1(O)C(=O)CO` [Dexamethazone, Dexamethasone, reference compound], in test [1] (1 mg/kg sc (reference compound)), the “% Inhibition of IL2-induced peritoneal recruitment” value (“% Inhibition” below) came out at 76%.

As for `CCOc1ccc(CCC[C@@H](C(=O)N2CCN(c3ccc(OC)cc3)CC2)[C@H](O)C(=O)NO)cc1` [Example 4, 6-(4-ethoxy-phenyl)-2S-hydroxy-3R-[4-(4-methoxy-phenyl)-piperazine-1-carbonyl]-hexanoic acid hydroxyamide], the IC50 at collagenase (MMP1) is more than 10000 nM; on metalloelastase (MMP12), less than 100 nM; on 92 kDa gelatinase (MMP9) it was less than 100 nM; at MMP-2 it was less than 100 nM. Also, in test [1] (setting [2]), the “% Inhibition” value came out at 34%.

Take `CCOc1ccc(CCC[C@@H](C(=O)N2CCN(c3ccccn3)CC2)[C@H](O)C(=O)NO)cc1` [Example 5, 6-(4-ethoxy-phenyl)-2S-hydroxy-3R-(4-pyridin-2-yl-piperazine-1-carbonyl)-hexanoic acid hydroxyamide]: the IC50 on collagenase (MMP1) was more than 10000 nM; on metalloelastase (MMP12), less than 100 nM; on 92 kDa gelatinase (MMP9), less than 100 nM; at MMP-2, less than 100 nM. For the same compound, in test [1] (setting [2]), the “% Inhibition” value was 50%.

Turning to `CCOc1ccc(CCC[C@@H](C(=O)N2CCN(c3ccncc3)CC2)[C@H](O)C(=O)NO)cc1` [Example 6, 6-(4-ethoxy-phenyl)-2S-hydroxy-3R-(4-pyridin-4-yl-piperazine-1-carbonyl)-hexanoic acid hydroxyamide], the IC50 was more than 10000 nM at collagenase (MMP1), less than 100 nM on metalloelastase (MMP12), 100 to 1000 nM on 92 kDa gelatinase (MMP9) and 100 to 1000 nM on MMP-2. In addition, in test [1] (setting [2]), the “% Inhibition” value was found to be 33%.

As to `CCOc1ccc(CCC[C@@H](C(=O)N2CCN(Cc3ccc4c(c3)OCO4)CC2)[C@H](O)C(=O)NO)cc1` [Example 12, 3R-(4-benzo[1,3]dioxol-5-ylmethyl-piperazine-1-carbonyl)-6-(4-ethoxy-phenyl)-2S-hydroxy-hexanoic acid hydroxyamide], the IC50 was more than 10000 nM on collagenase (MMP1), less than 100 nM on metalloelastase (MMP12), less than 100 nM at 92 kDa gelatinase (MMP9) and less than 100 nM on MMP-2.

For `CCOc1ccc(CCC[C@@H](C(=O)N2CCN(Cc3ccncc3)CC2)[C@H](O)C(=O)NO)cc1` [Example 13, 6-(4-ethoxy-phenyl)-2S-hydroxy-3R-(4-pyridin-4-ylmethyl-piperazine-1-carbonyl)-hexanoic acid hydroxyamide], the IC50 on collagenase (MMP1) was more than 10000 nM; at metalloelastase (MMP12), less than 100 nM; on 92 kDa gelatinase (MMP9) it was less than 100 nM; on MMP-2 it was less than 100 nM. Also, the “% Inhibition” value in test [1] (setting [2]) is 47%.

Regarding `CCOc1ccc(CCC[C@@H](C(=O)N2CCN(Cc3ccccc3)CC2)[C@H](O)C(=O)NO)cc1` [Example 14, 6-(4-ethoxy-phenyl)-2S-hydroxy-3R-(4-benzylpiperazine-1-carbonyl)-hexanoic acid hydroxyamide], the IC50 is more than 10000 nM on collagenase (MMP1), less than 100 nM at metalloelastase (MMP12), less than 100 nM on 92 kDa gelatinase (MMP9) and less than 100 nM on MMP-2. Further, the “% Inhibition” value in test [1] (setting [2]) was 30%.

In the case of `CCOc1ccc(CCC[C@@H](C(=O)N2CCN(c3ccccc3F)CC2)[C@H](O)C(=O)NO)cc1` [Example 20, 6-(4-ethoxy-phenyl)-2S-hydroxy-3R-[4-(2-fluoro-phenyl)-piperazine-1-carbonyl]-hexanoic acid hydroxyamide], the IC50 at collagenase (MMP1) is more than 10000 nM; on metalloelastase (MMP12), less than 100 nM; on 92 kDa gelatinase (MMP9), less than 100 nM; at MMP-2 it was less than 100 nM. The “% Inhibition” value in test [1] (setting [2]) is listed as 57%.

For the compound `CCOc1ccc(CCC[C@@H](C(=O)N2CCN(c3ccccc3F)CC2)[C@H](OC)C(=O)NO)cc1` [Example 62, 6-(4-ethoxy-phenyl)-2S-methoxy-3R-[4-(2-fluoro-phenyl)-piperazine-1-carbonyl]-hexanoic acid hydroxyamide], the IC50 at collagenase (MMP1) was more than 10000 nM; on metalloelastase (MMP12), less than 100 nM; on 92 kDa gelatinase (MMP9), less than 100 nM; at MMP-2, less than 100 nM.

For the origin of these results see patent US7786121B2, “Derivatives of hydroxamic acid as metalloproteinase inhibitors” (Vernalis (Oxford) Limited, priority 2003, dated 2010).
